These results are taken from patent US20050266509A1, “Interaction of NMDA receptor with protein tyrosine phosphatase” (AGY Therapeutics, Inc., priority 2003, published 2005).

For assay [1], the target named is T1, PTPMEG (Homo sapiens, UniProt P29074).
T1 construct: Asp-Ser-6xHis (N); made in house; host or cells: E. coli BL21(DE3)
T1 sequence (P29074 655-911 limits assumed): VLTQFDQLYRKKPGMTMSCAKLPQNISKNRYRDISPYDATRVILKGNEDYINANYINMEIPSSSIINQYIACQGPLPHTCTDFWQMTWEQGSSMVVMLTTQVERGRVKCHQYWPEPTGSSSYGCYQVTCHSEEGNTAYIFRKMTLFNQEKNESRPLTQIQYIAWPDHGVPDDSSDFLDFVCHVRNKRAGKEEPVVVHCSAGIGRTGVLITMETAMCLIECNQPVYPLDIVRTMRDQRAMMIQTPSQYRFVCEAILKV
As to the kind of experiment: TR-FRET phosphatase activity assay, PTPMEG. Type of assay: biochemical. The procedure: Expression and Purification of PTPMEG The DNA sequence encoding the C-terminal 326 residues of PTPMEG (phosphatase domain) was subcloned into the pET-17b vector (Novagen) between the Ndel and Xhol restriction sites. An N-terminal tag consisting of Asp-Ser-6×His was incorporated at the beginning of the protein sequence. Protein expression was performed in BL21(DE3) cells at 37° C. with a 4 hour 0.5 mM IPTG induction. The cells were harvested by centrifugation and stored at −80° C. until needed for protein purification. Protein purification consisted of cell lysis by sonication, immobilized metal affinity chromatography (IMAC) on a Ni^2+-NTA column (Qiagen), followed by hydrophobic interaction chromatography (HIC) on a phenyl sepharose column (Amersham Pharmacia Biotech) and/or ion exchange chromatography (IEC) on a Q sepharose column (Amersham Pharmacia Biotech). The purified 38.3 kDa protein was buffer exchanged into 50 mM HEPES, pH 7.5 and stored at −80° C.
Phosphatase Buffer: 50 mm HEPES, pH 8; 1 mM DDT; 2 mM EDTA; 0.01% Brij solution; 10 mM MgCl2. […]
The plates are then placed in the plate reader, an Analyst HT. […] Fluorescence resonance energy transfer (FRET) from Eu-Ab to APC will only occur when they are in close proximity. […]
On the technique in general: Time-resolved FRET reads energy transfer from a long-lived donor to a nearby acceptor.

For the next assay, the target named is PTPB (Homo sapiens, UniProt P23467). In words: FRET phosphatase assay, PTPB. Type of assay: biochemical. The procedure:
(§1) For the enzyme activity assay, 2.5 μl of compound, 12.5 μl of enzyme, and 10 μl of substrate (separated by air gaps) are added to columns 3 through 24 by the Biomek FX in a single dispense. After the dispense, the tips are washed with DMSO and water for re-use between each quadrant. Once the assay plates are set up, they are incubated at 27° C. for 45 minutes. Then 20 μl of detection buffer is added to stop the reaction and to allow the Europium antibody (Eu-Ab) and streptavidin-APC to bind to the substrate.
(§2) The plates are then placed in the plate reader, an Analyst HT. Excitation light at 360 nm is used to excite the Europium antibody with an emission at 620 nm. Fluorescence resonance energy transfer (FRET) from Eu-Ab to APC will only occur when they are in close proximity. Therefore, when an APC emission is observed at 665 nm the enzyme has been inhibited from removing the phosphate group from the substrate. The FRET assay is time-resolved (TR), where there is a delay between excitation light and collection of emission signals. This reduces the amount of stray light created by short-lived fluorescing molecules. The Analyst HT measures APC and Europium emission signals and calculates the ratio between the two intensities. Typical intensities for the Europium is ˜2000 and APC is ˜600.
(§3) The following compounds were tested by FRET against the listed phosphatases, and the IC50 were obtained. […]

The target of another assay is T2, CD45 (Homo sapiens, UniProt P08575).
T2 sequence (P08575 26-1306): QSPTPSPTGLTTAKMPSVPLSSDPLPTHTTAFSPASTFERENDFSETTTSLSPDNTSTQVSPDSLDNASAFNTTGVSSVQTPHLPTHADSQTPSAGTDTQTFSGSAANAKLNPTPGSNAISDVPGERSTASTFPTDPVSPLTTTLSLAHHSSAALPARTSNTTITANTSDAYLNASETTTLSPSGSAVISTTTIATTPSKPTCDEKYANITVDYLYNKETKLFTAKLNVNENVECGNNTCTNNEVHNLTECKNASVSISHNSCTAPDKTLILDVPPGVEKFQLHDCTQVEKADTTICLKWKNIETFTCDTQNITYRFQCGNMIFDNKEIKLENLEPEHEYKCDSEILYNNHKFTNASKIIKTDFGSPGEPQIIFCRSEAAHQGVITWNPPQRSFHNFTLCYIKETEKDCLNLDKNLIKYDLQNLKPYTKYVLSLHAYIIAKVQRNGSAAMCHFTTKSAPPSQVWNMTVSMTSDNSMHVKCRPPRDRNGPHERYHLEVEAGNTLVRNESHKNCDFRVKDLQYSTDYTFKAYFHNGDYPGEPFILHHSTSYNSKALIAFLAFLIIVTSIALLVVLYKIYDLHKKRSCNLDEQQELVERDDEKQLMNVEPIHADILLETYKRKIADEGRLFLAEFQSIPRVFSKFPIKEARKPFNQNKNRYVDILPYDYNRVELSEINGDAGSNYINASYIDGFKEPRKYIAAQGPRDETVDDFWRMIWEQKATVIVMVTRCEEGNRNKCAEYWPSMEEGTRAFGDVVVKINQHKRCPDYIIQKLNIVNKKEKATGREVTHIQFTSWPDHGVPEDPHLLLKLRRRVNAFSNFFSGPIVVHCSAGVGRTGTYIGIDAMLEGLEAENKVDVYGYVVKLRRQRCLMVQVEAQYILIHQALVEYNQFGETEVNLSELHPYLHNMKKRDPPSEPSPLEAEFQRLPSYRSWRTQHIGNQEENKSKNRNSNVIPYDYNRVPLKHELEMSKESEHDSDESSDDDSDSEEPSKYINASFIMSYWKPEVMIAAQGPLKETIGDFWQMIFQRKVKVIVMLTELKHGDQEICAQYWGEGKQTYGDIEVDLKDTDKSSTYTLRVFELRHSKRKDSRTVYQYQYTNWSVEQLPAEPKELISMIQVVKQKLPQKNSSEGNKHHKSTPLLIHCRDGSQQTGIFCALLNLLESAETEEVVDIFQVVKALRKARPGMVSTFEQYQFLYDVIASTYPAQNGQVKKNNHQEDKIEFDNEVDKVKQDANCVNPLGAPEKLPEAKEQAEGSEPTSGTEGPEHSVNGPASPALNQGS
In words: FRET phosphatase assay, CD45. Type of assay: biochemical. As for the experimental part: as §1, §2, §3

The target in a further assay is T3, T Cell (Homo sapiens, UniProt P17706).
T3 sequence (P17706 1-415): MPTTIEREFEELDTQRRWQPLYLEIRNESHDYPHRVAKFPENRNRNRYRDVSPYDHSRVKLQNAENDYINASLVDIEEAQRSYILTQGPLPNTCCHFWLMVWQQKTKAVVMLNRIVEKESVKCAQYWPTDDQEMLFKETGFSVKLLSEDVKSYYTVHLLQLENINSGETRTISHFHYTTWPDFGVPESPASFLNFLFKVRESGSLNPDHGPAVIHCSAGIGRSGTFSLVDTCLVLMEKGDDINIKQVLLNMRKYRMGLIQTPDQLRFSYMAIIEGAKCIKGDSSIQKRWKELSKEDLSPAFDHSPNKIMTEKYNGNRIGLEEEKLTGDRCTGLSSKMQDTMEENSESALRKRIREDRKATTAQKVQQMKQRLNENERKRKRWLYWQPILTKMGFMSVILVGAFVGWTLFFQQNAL
As to the kind of experiment: FRET phosphatase assay, T Cell. Type of assay: biochemical. As for the experimental part:
as §1, §2, §3

For another assay, the system named is mice. In words: Amphetamine-induced hyperactivity model (open field). The following applies: 5 mg/kg SC, 60 min recording period.
For assay [2], the target named is T4, PTPMEG (Homo sapiens, UniProt P29074).
T4 construct: expressed in transfected cells
T4 sequence (P29074 1-926): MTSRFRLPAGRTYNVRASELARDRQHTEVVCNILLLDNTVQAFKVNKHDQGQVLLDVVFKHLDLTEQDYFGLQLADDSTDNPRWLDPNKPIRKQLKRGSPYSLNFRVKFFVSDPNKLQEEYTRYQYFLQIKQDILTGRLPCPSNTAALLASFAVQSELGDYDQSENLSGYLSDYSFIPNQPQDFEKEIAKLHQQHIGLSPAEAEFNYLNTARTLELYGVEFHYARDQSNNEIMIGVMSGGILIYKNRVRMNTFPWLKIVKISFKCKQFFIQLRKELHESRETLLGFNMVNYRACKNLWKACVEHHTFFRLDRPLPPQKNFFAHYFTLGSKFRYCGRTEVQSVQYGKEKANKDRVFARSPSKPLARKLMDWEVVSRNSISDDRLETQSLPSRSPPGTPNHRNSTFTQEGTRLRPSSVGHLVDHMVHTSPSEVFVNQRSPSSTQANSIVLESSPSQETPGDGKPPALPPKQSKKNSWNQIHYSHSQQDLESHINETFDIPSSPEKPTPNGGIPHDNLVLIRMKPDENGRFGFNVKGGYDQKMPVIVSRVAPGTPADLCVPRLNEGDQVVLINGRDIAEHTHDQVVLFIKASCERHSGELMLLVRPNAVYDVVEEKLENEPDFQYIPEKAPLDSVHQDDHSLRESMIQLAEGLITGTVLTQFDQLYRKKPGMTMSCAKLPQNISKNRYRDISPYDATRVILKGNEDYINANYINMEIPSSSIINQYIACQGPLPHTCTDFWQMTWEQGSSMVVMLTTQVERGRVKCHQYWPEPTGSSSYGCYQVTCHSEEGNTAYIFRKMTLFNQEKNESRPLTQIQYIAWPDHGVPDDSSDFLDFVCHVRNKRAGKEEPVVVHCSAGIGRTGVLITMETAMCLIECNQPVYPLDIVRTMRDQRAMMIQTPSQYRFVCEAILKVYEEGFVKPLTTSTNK
In words: Western blot of NR2B and Src phosphorylation in NR1/NR2B stable cell line transfected with active Src and PTPMEG. Type of assay: cell-based. As to conditions: 48 h post transfection. The procedure: A stable cell line, expressing the NMDA receptor subunit NR1 together with NR2B was transiently transfected with constitutive active Src kinase and PTPMEG, wildtype and dominant negative CS mutant, respectively. Control experiments included dephostatin, a generic tyrosine phosphatase inhibitor. 48 h post transfection cells were lysed and subsequently analyzed by western blot. In presence of the active wildtype PTPMEG phosphatase, both the NR2B subunit as well as Src kinase were dephosphorylated, shown in FIG. 3. […] NR2B phosphorylation by Src kinase was detected by an NR2B phosphospecific antibody. Dephosphorylation of NR2B and Src kinase was reversed by addition of dephostatin, and unaffected in presence of the dominant negative form of PTPMEG (CS). (FIG. 5)

The target of assay [3] is T4, PTPMEG. In words: Western blot of Src/fyn Y418 phosphorylation in NR1/NR2B stable cell line transfected with active Src or fyn and PTPMEG. Type of assay: cell-based. As to conditions: 500 μM, 3 hours, 48 hrs post-transfection. The text has this:
PTPMEG Dephosphorylates Protein Kinases Src and fyn. A stable cell line expressing the NR1 and NR2B subunits of the NMDA receptor was transiently transfected with constitutive active Src Srcor constitutive active fyn (fyn Y530F, where the tyrosine at position 530 is substituted by a phenylalanine) and PTPMEG, from a full length PTPMEG (amino-terminal myc-tag, c-terminal HA tag) expression construct in the pRK5 vector, with a CMV-driven promoter.
48 hrs post-transfection the cells were stimulated with 500 μM sodium orthovanadate, a […] for 3 hours. Cells were lysed and analyzed by western blot using a Src/fyn specific phosphoantibody (from Biosource) that recognizes the residue Y418 critical for activity for both Src and fyn. In presence of PTPMEG (identified with a c-myc antibody from Upstate) there is a dephosphorylation of Src and fyn at position Y418. This dephosphorylation is reversed by sodium orthovanadate. A pan Src antibody that recognizes total Src and fyn is used as a loading control.
In general terms: In western blotting, separated proteins are transferred to a membrane and probed.

“Also recorded” adds a separate entry of the source. Some results are limits rather than exact numbers.

One may read the IC50 as the concentration needed to halve the response being measured. A lower IC50 goes with greater potency in that assay.

Chain of PTPB (P23467 1643-1997 limits assumed): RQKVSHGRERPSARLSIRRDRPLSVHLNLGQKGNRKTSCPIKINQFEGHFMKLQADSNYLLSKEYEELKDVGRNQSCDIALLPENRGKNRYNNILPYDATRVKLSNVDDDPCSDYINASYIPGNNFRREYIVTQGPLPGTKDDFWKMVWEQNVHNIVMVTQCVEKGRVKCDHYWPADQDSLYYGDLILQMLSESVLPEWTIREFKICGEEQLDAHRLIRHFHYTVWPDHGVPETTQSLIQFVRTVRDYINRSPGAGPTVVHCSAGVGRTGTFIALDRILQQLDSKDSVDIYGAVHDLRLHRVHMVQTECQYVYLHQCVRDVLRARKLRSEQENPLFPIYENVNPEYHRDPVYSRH

With `O=C(O)CN1C(=O)c2cccc3cccc1c23` [AGY- 0041763], the IC50 against PTPMEG [1] was 0.56 µM; against PTPB, > 500 µM; against CD45, > 500 µM; at T Cell, > 500 µM.
Consider `C[C@H](N)Cc1ccccc1` [d-amphetamine], for which, in the assay on mice, the “Locomotion (total distance in the open field)” value is given as “significantly increases”.
`CN(N=O)c1cc(O)ccc1O` [dephostatin]: the “Dephosphorylation of NR2B by PTPMEG” value at PTPMEG [2] (NR2B phosphospecific antibody western blot) is reported as “reversed”. For the same molecule, the “Dephosphorylation of Src kinase (position 418) by PTPMEG” value at PTPMEG [2] (anti PY418 western blot) was “reversed; also recorded: restores phosphorylation”.
As to `[Na+].[Na+].[Na+].[O]=[V]([O-])([O-])[O-]` [sodium orthovanadate], the “Dephosphorylation of Src and fyn at position Y418 by PTPMEG” value on PTPMEG [3] was “reversed”.
